Where two headings read alike, the source gives them in different places.
How the values were obtained:
[1] = tested on: Zebra chip/purple top (Candidatus Liberibacter solanacearum); type: in vivo; conditions: cross cut tubercles, relative to untreated
potato variety Caesar [2] = test: Potato tubercle production at harvest; type: in vivo, potato (Solanum tuberosum); conditions: for Total production in Kilograms per parcel, Average: all categories, harvest; for Production in Kilograms per treatment categories: Combined: combined quality category; for Production in Kilograms per treatment categories: First: first quality category; for Production in Kilograms per treatment categories: Third: third quality category
Excerpt: (§1) The seeding was made on June 10. The potato variety used was Caesar, third-category tubercles were used. A soil application was made to all the treatments when fluoxastrobin fungicides were applied; 2-litters dose or commercial product per hectare, and penfuflen 0.650 litters dose per hectare; in order to prevent Fusarium spp. and/or Rhizoctoniasolani fungus attack. The experimental design used was random blocks with four repetitions; the experimental parcel was formed by four furrows at a distance between furrows of 0.92 m, and 10 meters length. The useful parcel consisted in two central furrows of each experimental parcel. Distance between plants was 0.25 m.
(§2) The applied treatments consisted in an application on the bottom of the furrow when the seeding was taking place, and eleven foliar applications.
Production: In harvest, each treatment production was analyzed, for which two lineal meters were harvested of each experimental parcel central furrows, registering the potato tubercles production for each of the four categories (first, second, third and combined).

[3] = tested on: Zebra chip (Candidatus Liberibacter solanacearum); type: in vivo; conditions: fried slices, under heading Flake Burning Severity
[4] = tested on: Zebra chip/purple top (Candidatus Liberibacter solanacearum / Candidatus Phytoplasma americanum); type: in vivo; conditions: relative to untreated treatment 1
Bactericera cockerelli = Bactericera cockerelli population dynamic (adults, nymphs, eggs) in potato field trial; type: in vivo; conditions: for average of registered adults: B. cockerelli adults, four-repetitions average; for B. Cokerelli eggs population average / Average of registered B.cokerelli nymphs: average of four repetitions
Excerpt: as §1, §2
Bactericera cockerelli, Population Dynamic: Studies on adult psilides, nymphs and eggs were population dynamic were made. For which purpose a count was made before the first foliar application and subsequently after each treatment application. To know the number of adults 20 net traps (with entomologic net) per experimental parcel, in each evaluation. To determine the number of eggs and nymphs, 50 pinnas were evaluated per parcel in each evaluation.

potato variety Caesar [5] = test: Cultivation emergence (germination) in potato field trial; type: in vivo, potato (Solanum tuberosum); conditions: 22 days after seeding, plants emerged in central furrows
Excerpt: as §1, §2
Emergence: Cultivation emergence was determined; for which the number of plants that emerged in each parcel central furrows was counted at 100% emergence. The data were collected on Jul. 2, 2014 (22 days after seeding).

For `N#Cc1ccccc1NC(=O)c1snc(Cl)c1Cl` [Treatment 3, Isotianil], the “tubercle staining Incidence Control Percentage” value ([1]; listed as 3) was 35.01%, the “tubercle staining Severity Control Percentage” value ([1]; listed as 3) was 43.13% and the “Total production in Kilograms per parcel, Average” value (potato variety Caesar [2]; listed as 3) was 17.975 Kilograms per parcel. For the same molecule, the “Production in Kilograms per treatment categories: Combined” value (potato variety Caesar [2]; listed as 3) was 39.8 Kilograms, the “Production in Kilograms per treatment categories: First” value (potato variety Caesar [2]; listed as 3) was 0 Kilograms and the “Production in Kilograms per treatment categories: Third” value (potato variety Caesar [2]; listed as 3) was 24.3 Kilograms. For the same molecule, the “Flake burning Incidence control percentage” value ([3]; listed as 3) was 31.3%, the “Zebra chip/purple top incidence control percentage” value ([4]; listed as 3) was 14.35% and the “average of registered adults” value (Bactericera cockerelli; 02-Sep., listed as T3) was 1.75. The “average of registered adults” value (Bactericera cockerelli; 5-Aug., 20 net traps per parcel, listed as T3) was 1, the “average of registered adults” value (Bactericera cockerelli; 08-sep., listed as T3) was 0.5 and the “average of registered adults” value (Bactericera cockerelli; 12-Aug., listed as T3) was 1.25. The “average of registered adults” value (Bactericera cockerelli; 18-Aug., listed as T3) was 3.75, the “average of registered adults” value (Bactericera cockerelli; 19-Sep., listed as T3) was 4.75 and the “B. Cokerelli eggs population average” value (Bactericera cockerelli; 08-sep., listed as T3) was 1.25. For the same molecule, the “B. Cokerelli eggs population average” value (Bactericera cockerelli; 12-August, listed as T3) was 1.5, the “Average of registered B.cokerelli nymphs” value (Bactericera cockerelli; 02-Sep., listed as T3) was 4.5 and the “Average of registered B.cokerelli nymphs” value (Bactericera cockerelli; 08-sep., listed as T3) was 3. For the same molecule, the “Average of registered B.cokerelli nymphs” value (Bactericera cockerelli; 12-Aug., listed as T3) was 0, the “Average of registered B.cokerelli nymphs” value (Bactericera cockerelli; 18-Aug., listed as T3) was 0 and the “Emergence Percentage” value (potato variety Caesar [5]; listed as 3) was 61.2%.

With `N#Cc1ccccc1NC(=O)c1snc(Cl)c1Cl` [Treatment 4, Isotianil] the “tubercle staining Incidence Control Percentage” value ([1]; listed as 4) was 63.35%, the “tubercle staining Severity Control Percentage” value ([1]; listed as 4) was 74.50% and the “Total production in Kilograms per parcel, Average” value (potato variety Caesar [2]; listed as 4) was 21.3 Kilograms per parcel. The “Production in Kilograms per treatment categories: Combined” value (potato variety Caesar [2]; listed as 4) was 37.7 Kilograms, the “Production in Kilograms per treatment categories: First” value (potato variety Caesar [2]; listed as 4) was 4 Kilograms and the “Production in Kilograms per treatment categories: Second” value (potato variety Caesar [2]; second quality category) was 7.8 Kilograms. The “Production in Kilograms per treatment categories: Third” value (potato variety Caesar [2]; listed as 4) was 35.7 Kilograms, the “Flake burning Incidence control percentage” value ([3]; listed as 4) was 54% and the “Zebra chip/purple top incidence control percentage” value ([4]; listed as 4) was 62.65%. For the same molecule, the “average of registered adults” value (Bactericera cockerelli; 02-Sep., listed as T4) was 0.25, the “average of registered adults” value (Bactericera cockerelli; 5-Aug., 20 net traps per parcel, listed as T4) was 0.75 and the “average of registered adults” value (Bactericera cockerelli; 08-sep., listed as T4) was 0. For the same molecule, the “average of registered adults” value (Bactericera cockerelli; 12-Aug., listed as T4) was 2, the “average of registered adults” value (Bactericera cockerelli; 18-Aug., listed as T4) was 1 and the “average of registered adults” value (Bactericera cockerelli; 19-Sep., listed as T4) was 2.75. For the same molecule, the “B. Cokerelli eggs population average” value (Bactericera cockerelli; 02-Sep.) was 0, the “B. Cokerelli eggs population average” value (Bactericera cockerelli; 5-August, 50 pinnas per parcel) was 0 and the “B. Cokerelli eggs population average” value (Bactericera cockerelli; 08-sep., listed as T4) was 0.75. For the same molecule, the “B. Cokerelli eggs population average” value (Bactericera cockerelli; 12-August, listed as T4) was 4.5, the “B. Cokerelli eggs population average” value (Bactericera cockerelli; 18-August) was 0 and the “B. Cokerelli eggs population average” value (Bactericera cockerelli; 19-Sep.) was 0. For the same molecule, the “Average of registered B.cokerelli nymphs” value (Bactericera cockerelli; 02-Sep., listed as T4) was 13.75, the “Average of registered B.cokerelli nymphs” value (Bactericera cockerelli; 5-Aug., 50 pinnas per parcel) was 0 and the “Average of registered B.cokerelli nymphs” value (Bactericera cockerelli; 08-sep., listed as T4) was 0. For the same molecule, the “Average of registered B.cokerelli nymphs” value (Bactericera cockerelli; 12-Aug., listed as T4) was 2.25, the “Average of registered B.cokerelli nymphs” value (Bactericera cockerelli; 18-Aug., listed as T4) was 0.25 and the “Average of registered B.cokerelli nymphs” value (Bactericera cockerelli; 19-Sep.) was 0. The “Emergence Percentage” value (potato variety Caesar [5]; listed as 4) was 71.8%.

From patent US20210251234A1 (priority 2015, published 2021)
